Experimental data from US7087035B2 (priority 1999, dated 2006).

Settings: stretched and non-stretched groups; systems removed at 24 and 48 hours
Excerpt: In one group of 12 hairless guinea pigs the skin of one flank was stretched manually bi-directionally ( ? and ? ) before application of a foam double adhesive ring having a thickness of 0.8 mm ( 1/32 inch) with a 2 cm^2 hole in the middle which would later contain the drug. The bi-directional stretching was estimated to achieve a skin tension of between 0.1 and 1 M Pa. The adhesive ring served to keep the skin under the drug compartment in the stretched configuration. Next, a 2 cm^2 stainless steel microprotrusion array having trapezoidal microprotrusions with microprotrusion lengths of 430 μm and a microprotrusion density of 241 microprotrusions/cm^2 was applied to the skin beneath the drug compartment using an approximately 2 kg/cm^2 normal manual pressure. The microprotrusion array was held for a few seconds and then removed.
A second group of 12 hairless guinea pigs were treated in the same way, except that the skin was not stretched. At 12, 24, and 48 hours after application four systems from each group were removed and residual drug was washed from the skin.

NCCCC[C@H](N[C@@H](CCc1ccccc1)C(=O)O)C(=O)N1CCC[C@H]1C(=O)O [lisinopril]
drug flux after 12 hours: no drug flux in either group
